Structures are written as SMILES. ≈ marks a conversion by molar mass, not a printed value. Like-named read-outs stand apart in the source and are kept apart here. Bounds are passed on as bounds.

A short description of data set [1]: Baclofen solubility assays (visual method). The data set is classed as physicochemical. Particulars: for solubility at 24 h: thermodynamic from solid. How it is done:
Beforehand it is important to determine the solubility of the active ingredient in the excipients to be evaluated. For the purpose of cell assays, it is important that the active ingredient should be in molecular form to obtain cross-membrane transport. Solubility was determined via visual method by adding exactly weighed quantities of baclofen to the selected excipients, after being left under agitation for 24 h. First the solubility of baclofen at ambient temperature in Labrasol®, Miglyol® 810 and Captex® 355 was determined. The solubility of baclofen in Gélucire® 50/13 was determined after melting the excipient at a temperature higher than 50° C. and placing thereof in a thermostat-controlled oven at 60° C. At a second step, to increase the solubility of baclofen in an aqueous medium, this solubility was determined in an acidified solution of 0.01 M fumaric acid.
The solubility values indicated in Table 7 below were determined in relation to visual observation of particles in the media.

For data set [2] the following is noted: Benet, et al., 2011; cited from earlier work.
A short description of data set [3]: Permeability assay on Caco-2 cells (apparent permeability). The data set is classed as in vitro ADME, human. The following applies: human. An excerpt:
(§1) The Caco-2 cells are derived from the culture of human cells of cancerous origin capable of differentiating in the presence of a suitable culture medium (Pontier, 1997-1998). Their properties are a function of the number of subcultures to which they are subjected. […] The brush-border is differentiated and developed with very tight junctions of 10 to 50 Å (narrower than those of the small intestine). From a biochemical viewpoint, Caco-2 cells also express the enzymes of the enterocytes. In addition, numerous transporters are present but their expression is lower than the levels found in vivo and the P-gp efflux pump is over-expressed which may underestimate absorption compared with in vivo.
(§2) The Caco-2 cells were placed in culture and differentiated over 21 to 30 days. They were subjected to a number of subcultures of less than 110. The culture medium was DMEM (Dulbecco's Modified Eagle Medium) supplemented with inactivated 10% foetal calf serum, with 1% non-essential amino acids and antibiotics.
(§3) The Caco-2 cells allowed evaluation of the potential of eight formulas given in Tables 5a, 5b, 5c and 5d, for improvement in the apparent permeability of baclofen. The dilutions are those chosen by the subcontractor as a function of baclofen concentration measured by the assay technique and as a function of the […] non-toxic concentration given by preliminary toxicity studies.
(§4) Samples were taken after the placing the test specimen in the apical medium: at T5 minutes and T125 minutes in the donor compartment and at T65 minutes and T125 minutes in the receiver compartment. […]
(§5) The apparent permeability of baclofen and the recovery ratio were calculated as follows: Papp=[ΔQ/(Δt×A)]/C0 where Papp=apparent permeability (cm·s^−1) • ΔQ=difference in amount of baclofen measured between the two samplings • Δt=time interval between the two samplings • A=exposure surface area (cm^2) • C0=initial concentration deposited in the donor compartment.
(§6) Each assay was performed three times. For the validity of the assay, the permeability of a reference compound was also measured as positive control. […]
(In general: Passage across Caco-2 layers is used to estimate intestinal permeability.)

Data set [4] has as its system Caco-2 cells. The description is as above. The data set is classed as in vitro ADME, human. The following applies: Caco-2, apical pH 6.8 to basolateral pH 7.4; listed as non-formulated baclofen.
Excerpt: as §1, §2, §3, §4, §5, §6

A short description of data set [5]: Physicochemical characteristics of baclofen (internal report). How it is done: Baclofen (FIG. 1) is a BCS class III molecule.
The transport mechanism of baclofen (Merino, et al., 1989) is active transport by means of transporters but these are saturated at high dose. Not knowing the transporter composition of the Caco-2 cells, it is sought to have a high concentration of baclofen in the formulas so that the transporters that are present are saturated. Therefore only the increase in paracellular transport was evaluated. The saturation concentration of baclofen in water is 3 mg/ml (internal pre-formulation report). However, its solubility is highly dependent on pH as indicated by the amine and carboxylic functions present on the molecule. Therefore the addition of 0.01 M fumaric acid shown to be compatible with baclofen by the internal pre-formulation report, allows the solubility of baclofen to be increased twofold to 6 mg/ml. The pH is then 3.88.

Data set [6] relates to Caco-2 cells. In words: Lucifer Yellow test (paracellular transport, tight junctions). The data set is classed as cell-based, human. The text has this:
Lucifer yellow (LY) is a marker of paracellular transport (Buyukorturk, et al., 2010). Its measurement in the receiver compartment during the permeability assay allows observation of the opening of the tight junctions. Measurement can also be performed after the assay to evaluate cell integrity (Nollevaux, et al., 2006). The apparent permeability of Lucifer Yellow under normal conditions is […] (Oroxcell, 2011).
Throughout the assays the crossing of Lucifer Yellow from the apical to the basolateral compartment, a marker of paracellular transport, was also evaluated. 200 μM of Lucifer Yellow was co-incubated with the test compound and its permeability evaluated in the same manner as for the latter. Concentrations were measured by fluorescence in both compartments at the start and at the end of the assay.

With `NCC(CC(=O)O)c1ccc(Cl)cc1` (stereo not drawn) [baclofen, Baclofen], in data set [1] (6 mg/ml baclofen in 0.01 M fumaric acid), the “pH of the baclofen solution” value is given as 3.88. Besides, the solubility at 24 h in data set [1] (0.01 M fumaric acid aqueous solution, pH 3.88, aqueous buffer, in 0.01M fumaric acid aqueous medium, ambient, read-out: Solubility of baclofen) was 6000 to 7000 µg/mL (≈ 28.1 to 32.8 mM); in data set [1] (Gélucire 50/13 (molten), oil or lipid, in Gélucire ® 50/13, 60° C., read-out: Solubility of baclofen), 500 to 1000 µg/mL (≈ 2.34 to 4.68 mM); in data set [1] (liquid absorption enhancers, oil or lipid, read-out: solubility of the active ingredient in the liquid absorption enhancers), under 1000 µg/mL; in data set [1] (oil or lipid, in Captex ® 355, ambient, read-out: Solubility of baclofen) it was under 100 µg/mL; in data set [1] (oil or lipid, in Labrasol ®, ambient, read-out: Solubility of baclofen), 200 to 400 µg/mL (≈ 0.936 to 1.87 mM); in data set [1] (oil or lipid, in Miglyol ® 810, ambient, read-out: Solubility of baclofen) it was under 100 µg/mL. The solubility in words result in data set [1] (aqueous medium) is “soluble”; in data set [1] (oil excipients), “practically insoluble”. In data set [2], the “log P” value was −0.96. The Papp A→B at 125 min in data set [3] (Caco-2, Caco-2, apical pH 6.8 to basolateral pH 7.4, read-out: apparent permeability of baclofen) was under 0.3 ×10⁻⁶ cm/s. Moreover, the “apparent permeability of baclofen” value with Caco-2 cells [4] is “lower than 0.5×10^−6 cm/s”. In data set [5], the logP was -1. Moreover, the “pH of a saturated solution” value in data set [5] was 6.5. In data set [5], the pKa1 entry was “pKa1 = 3.87”. For the same molecule, in data set [5], the pKa2 entry is listed as “pKa2 = 9.62”. Further, the Solubility result in data set [5] (0.1N HCl, 0.1N NaOH) was “Soluble: 0.1N HCl, 0.1N NaOH”; in data set [5] (Ethanol, Methanol), “Very slightly soluble: Ethanol, Methanol”; in data set [5] (water, read-out: Solubility (saturation concentration) in water), 3000 µg/mL (≈ 14 mM).
`COCCc1ccc(OCC(O)CNC(C)C)cc1` (stereo not drawn) [metoprolol]: in data set [3] (Caco-2, 20 μM metoprolol, positive control), the Papp A→B at 125 min, 20 μM is over 6 ×10⁻⁶ cm/s. The “opening of the tight junctions, in words” value in the data set on Caco-2 cells [6] is given as “lack of effect”.

What is called solubility is how much of the substance goes into solution per volume. The term log P denotes a log measure of how a compound divides between an organic and an aqueous phase. What is called logP is a log measure of how a compound divides between an organic and an aqueous phase.
